Reference: patent US8124634B2, “CB1 receptor modulators” (7TM Pharma A/S, priority 2006, dated 2012)
pIC50: −log10 of the molar value.

Target: T1, human CB1 receptor (Homo sapiens, UniProt P21554)
T1 construct: expressed in transfected cells; membranes
Test: Cannabinoid Receptor-1 functional assay: inhibition of CP55940-induced [35S]GTPγS binding to membranes of CHO-K1 cells expressing human CB1
Format: biochemical
Conditions: 3 nM CP55940, hCB1 membranes, [35S]GTPγS SPA; read-out: IC50 value for antagonizing a CB1 receptor agonist
From the text: Transfection and Cell Culture—The cDNA encoding the human CB1 (Cannabinoid Receptor-1) receptor (GenBank accession number NM_016083) was cloned from a human adipose tissue cDNA library and cloned into the eukaryotic expression vector pcDNA3.1 (Invitrogen).
Chinese Hamster Ovary cells (CHO-K1) stably expressing recombinant human CB1 were generated by transfecting the plasmid containing the coding sequence of the human CB1 receptor in CHO-K1 cells, using lipofectamin, according to the manufacturer instructions. Resistant clones were selected in the presence of 600 μg/ml G418 (Life technology). Stably transfected CHO-K1 cells were maintained in Ham's F-12 culture medium (Invitrogen), supplemented with 10% fetal calf serum (Invitrogen), 100 U/ml penicillin, 100 μg/ml streptomycin (Life Technology), and 600 μg/ml G418.
Cannabinoid Receptor-1 Functional Assay.
Functional activities of the above examples of compounds of the invention were assessed in vitro by measuring their ability to inhibit CP55940-induced [^35S]GTPγS binding to membranes prepared from CHO-K1 cells expressing the human CB1 receptor (described in Transfection and Cell Culture). CP55940 is a well known non-selective CB1 and CB2 receptor agonist (e.g Felder et al., 1995, Molecular Pharmacology, (48) 443-50). Membranes were prepared by a standard procedure. Briefly, cells were harvested using 10 mM EDTA and collected by centrifugation. Pelleted cells were homogenized in ice-cold 20 mM Hepes (pH 7.4),10 mM EDTA and protease inhibitors (Complete protease inhibitor cocktail tablet, Roche) using an Ultra Turrax Homogenizer. The homogenate was centrifuged at 14 000 rpm for 45 min. at 4° C. The resultant pellet was resuspended in the same buffer but with only 0.1 mM EDTA and was again centrifuged at 14 000 rpm for 45 min. at 4° C. The resulting pellet (membranes) was resuspended in 20 mM Hepes (pH 7.4), 0.1 mM EDTA, 2 mM MgCl2 and protease inhibitors and protein concentration was determined by Micro BCA Protein Assay Reagent Kit (Pierce Biotechnology) according to the manufacturer instructions. The [^35S]GYPγS SPA (Scintillation Proximity Assay) binding assay was performed by incubating 5 μg/well hCB1-membranes with 1 nM [^35S]GYPγS (Perkin Elmer—NEG 030H) in the presence of 3 nM of CP55940 and various concentrations of the test compounds at room temperature for 1 hr in 96-well microtiter plates. 0.4 mg/well SPA beads (PVT-WGA; RPNQ0001 Amersham Pharmacia Biotech) were then added and the incubation continued for further 30 min. on an orbital shaker. The assay buffer contained 50 mM HEPES (pH 7.5), 50 mM NaCl, 2.5 mM MgCl2, 0.1% BSA, 1 μM GDP and 100 μg/ml Saponin. Microtiter plates were centrifuged at 1500 rpm for 5 min. and radioactivity was read immediately using a Topcounter (PerkinElmer Life Sciences). Data were analyzed and IC50 values determined by non-linear regression using the Prism software (GraphPad Software, San Diego).

T1 sequence (P21554 whole entry): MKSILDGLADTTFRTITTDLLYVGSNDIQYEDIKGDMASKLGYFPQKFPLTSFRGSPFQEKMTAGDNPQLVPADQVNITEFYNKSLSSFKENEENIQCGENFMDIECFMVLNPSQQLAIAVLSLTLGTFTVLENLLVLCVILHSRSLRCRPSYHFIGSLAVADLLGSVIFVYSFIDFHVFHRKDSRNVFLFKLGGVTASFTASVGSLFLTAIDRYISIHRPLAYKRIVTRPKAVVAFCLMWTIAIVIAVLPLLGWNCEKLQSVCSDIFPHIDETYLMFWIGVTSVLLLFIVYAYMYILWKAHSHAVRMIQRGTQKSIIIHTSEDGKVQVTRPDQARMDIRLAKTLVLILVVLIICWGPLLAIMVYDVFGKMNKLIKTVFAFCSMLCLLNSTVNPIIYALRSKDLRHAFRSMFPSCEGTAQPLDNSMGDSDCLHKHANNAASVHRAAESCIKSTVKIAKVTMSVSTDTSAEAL

pIC50, > 6.52:
CC(NC(=O)c1nn(-c2ccccc2Cl)c(-c2ccc(Cl)cc2)c1Cc1nnn[nH]1)c1ccc(C(F)(F)F)c(F)c1 (stereo not drawn) [[2.10], 5-(4-Chloro-phenyl)-1-(2-chloro-phenyl)-4-(1H-tetrazol-5-ylmethyl)-1H-pyrazole-3-carboxylic acid [1-(3-fluoro-4-trifluoromethyl-phenyl)-ethyl]-amide]
CCC(NC(=O)c1nn(-c2ccccc2Cl)c(-c2ccc(Cl)cc2)c1Cc1nnn[nH]1)c1ccc(Br)cc1 (stereo not drawn) [[2.11], 1-(2-Chloro-phenyl)-5-(4-chloro-phenyl)-4-(1H-tetrazol-5-ylmethyl)-1H-pyrazole-3-carboxylic acid [1-(4-bromo-phenyl)-propyl]-amide]
C[C@@H](NC(=O)c1nn(-c2ccccc2Cl)c(-c2ccc(Cl)cc2)c1Cc1nnn[nH]1)c1cccc(C(F)(F)F)c1 [[2.12], 1-(2-Chloro-phenyl)-5-(4-chloro-phenyl)-4-(1H-tetrazol-5-ylmethyl)-1H-pyrazole-3-carboxylic acid [(R)-1-(3-trifluoromethyl-phenyl)-ethyl]-amide]
CC(NC(=O)c1nn(-c2ccccc2Cl)c(-c2ccc(Cl)cc2)c1Cc1nnn[nH]1)c1ccc(Cl)c(Cl)c1 (stereo not drawn) [[2.13], 1-(2-Chloro-phenyl)-5-(4-chloro-phenyl)-4-(1H-tetrazol-5-ylmethyl)-1H-pyrazole-3-carboxylic acid [1-(3,4-dichloro-phenyl)-ethyl]-amide]
C[C@H](c1ccc(C(F)(F)F)cc1)N(C)C(=O)c1nn(-c2ccccc2Cl)c(-c2ccc(Cl)cc2)c1Cc1nnn[nH]1 [[2.14], 1-(2-Chloro-phenyl)-5-(4-chloro-phenyl)-4-(1H-tetrazol-5-ylmethyl)-1H-pyrazole-3-carboxylic acid methyl-[(R)-1-(4-trifluoromethyl-phenyl)-ethyl]-amide]
CCC(NC(=O)c1nn(-c2ccccc2Cl)c(-c2ccc(Cl)cc2)c1Cc1nnn[nH]1)c1ccc(C(F)(F)F)cc1 (stereo not drawn) [[2.15], 1-(2-Chloro-phenyl)-5-(4-chloro-phenyl)-4-(1H-tetrazol-5-ylmethyl)-1H-pyrazole-3-carboxylic acid [1-(4-trifluoromethyl-phenyl)propyl]-amide]
CC(NC(=O)c1nn(-c2ccccc2Cl)c(-c2ccc(Cl)cc2)c1Cc1nnn[nH]1)c1ccc(F)c(F)c1 (stereo not drawn) [[2.16], 1-(2-Chloro-phenyl)-5-(4-chloro-phenyl)-4-(1H-tetrazol-5-ylmethyl)-1H-pyrazole-3-carboxylic acid [1-(3,4-difluoro-phenyl)-ethyl]-amide]
C[C@@H](NC(=O)c1nn(-c2ccccc2Cl)c(-c2ccc(Cl)cc2)c1Cc1nnn[nH]1)c1cccc(F)c1 [[2.17], 1-(2-Chloro-phenyl)-5-(4-chloro-phenyl)-4-(1H-tetrazol-5-ylmethyl)-1H-pyrazole-3-carboxylic acid [(R)-1-(3-fluoro-phenyl)-ethyl]-amide]
CC(NC(=O)c1nn(-c2ccccc2Cl)c(-c2ccc(Cl)cc2)c1Cc1nnn[nH]1)c1cc(F)cc(F)c1 (stereo not drawn) [[2.18], 1-(2-Chloro-phenyl)-5-(4-chloro-phenyl)-4-(1H-tetrazol-5-ylmethyl)-1H-pyrazole-3-carboxylic acid [1-(3,5-difluoro-phenyl)-ethyl]-amide]
CC(NC(=O)c1nn(-c2ccccc2Cl)c(-c2ccc(Cl)cc2)c1Cc1nn[nH]n1)c1ccc(Cl)c(F)c1 (stereo not drawn) [[2.19], 5-(4-Chloro-phenyl)-1-(2-chloro-phenyl)-4-(2H-tetrazol-5-ylmethyl)-1H-pyrazole-3-carboxylic acid [1-(4-chloro-3-fluoro-phenyl)-ethyl]-amide]
CC(NC(=O)c1nn(-c2ccccc2Cl)c(-c2ccc(Cl)cc2)c1Cc1nn[nH]n1)c1ccc(Br)cc1F (stereo not drawn) [[2.20], 1-(2-Chloro-phenyl)-5-(4-chloro-phenyl)-4-(2H-tetrazol-5-ylmethyl)-1H-pyrazole-3-carboxylic acid [1-(4-bromo-2-fluoro-phenyl)-ethyl]-amide]
C[C@@H](NC(=O)c1nn(-c2ccccc2Cl)c(-c2ccc(Cl)cc2)c1Cc1nn[nH]n1)c1ccc(Cl)c(Cl)c1 [[2.22], 1-(2-Chloro-phenyl)-5-(4-chloro-phenyl)-4-(2H-tetrazol-5-ylmethyl)-1H-pyrazole-3-carboxylic acid [(R)-1-(3,4-dichloro-phenyl)-ethyl]-amide]
C[C@@H](NC(=O)c1nn(-c2ccccc2Cl)c(-c2ccc(Cl)cc2)c1Cc1nn[nH]n1)c1ccc(Cl)c(F)c1 [[2.23], 1-(2-Chloro-phenyl)-5-(4-chloro-phenyl)-4-(2H-tetrazol-5-ylmethyl)-1H-pyrazole-3-carboxylic acid [(R)-1-(3-fluoro-4-chloro-phenyl)-ethyl]-amide]
C[C@@H](NC(=O)c1nn(-c2ccccc2Cl)c(-c2ccc(Cl)cc2)c1Cc1nn[nH]n1)c1ccc(F)c(Cl)c1 [[2.24], 1-(2-Chloro-phenyl)-5-(4-chloro-phenyl)-4-(2H-tetrazol-5-ylmethyl)-1H-pyrazole-3-carboxylic acid [(R)-1-(3-chloro-4-fluoro-phenyl)-ethyl]-amide]
C[C@@H](NC(=O)c1nn(-c2ccccc2Cl)c(-c2ccc(Cl)cc2)c1Cc1nnn[nH]1)c1cccc(Cl)c1 [[2.25], 1-(2-Chloro-phenyl)-5-(4-chloro-phenyl)-4-(1H-tetrazol-5-ylmethyl)-1H-pyrazole-3-carboxylic acid [(R)-1-(3-chloro-phenyl)-ethyl]-amide]
C[C@@H](NC(=O)c1nn(-c2ccccc2Cl)c(-c2ccc(Cl)cc2)c1Cc1nn[nH]n1)c1ccc(OC(F)(F)F)cc1 [[2.26], 1-(2-Chloro-phenyl)-5-(4-chloro-phenyl)-4-(2H-tetrazol-5-ylmethyl)-1H-pyrazole-3-carboxylic acid [(R)-1-(4-trifluoromethoxyl-phenyl)-ethyl]-amide]
C[C@H](c1ccc(OC(F)(F)F)cc1)N(C)C(=O)c1nn(-c2ccccc2Cl)c(-c2ccc(Cl)cc2)c1Cc1nnn[nH]1 [[2.27], 1-(2-Chloro-phenyl)-5-(4-chloro-phenyl)-4-(1H-tetrazol-5-ylmethyl)-1H-pyrazole-3-carboxylic acid methyl-[(R)-1-(4-trifluoromethoxy-phenyl)-ethyl]-amide]
C[C@H](c1ccc(F)c(Cl)c1)N(C)C(=O)c1nn(-c2ccccc2Cl)c(-c2ccc(Cl)cc2)c1Cc1nnn[nH]1 [[2.28], 1-(2-Chloro-phenyl)-5-(4-chloro-phenyl)-4-(1H-tetrazol-5-ylmethyl)-1H-pyrazole-3-carboxylic acid methyl-[(R)-1-(3-chloro-4-fluoro-phenyl)-ethyl]-amide]
